From the Kinase Knowledgebase extract (Sharma et al. 2016) come the findings set out here.

Some results are limits rather than exact numbers.

The target in test [1] is CDK2 (human) (UniProt P24941). The test can be described thus: Enzyme Assay.
For the next test, the target named is EGFR (human) (UniProt P00533).
Test [2] concerns the target CDK2 (human) (UniProt P24941). The test can be described thus: Cell-Based Assay.

Sequence of EGFR (human) (P00533 whole entry, looked up): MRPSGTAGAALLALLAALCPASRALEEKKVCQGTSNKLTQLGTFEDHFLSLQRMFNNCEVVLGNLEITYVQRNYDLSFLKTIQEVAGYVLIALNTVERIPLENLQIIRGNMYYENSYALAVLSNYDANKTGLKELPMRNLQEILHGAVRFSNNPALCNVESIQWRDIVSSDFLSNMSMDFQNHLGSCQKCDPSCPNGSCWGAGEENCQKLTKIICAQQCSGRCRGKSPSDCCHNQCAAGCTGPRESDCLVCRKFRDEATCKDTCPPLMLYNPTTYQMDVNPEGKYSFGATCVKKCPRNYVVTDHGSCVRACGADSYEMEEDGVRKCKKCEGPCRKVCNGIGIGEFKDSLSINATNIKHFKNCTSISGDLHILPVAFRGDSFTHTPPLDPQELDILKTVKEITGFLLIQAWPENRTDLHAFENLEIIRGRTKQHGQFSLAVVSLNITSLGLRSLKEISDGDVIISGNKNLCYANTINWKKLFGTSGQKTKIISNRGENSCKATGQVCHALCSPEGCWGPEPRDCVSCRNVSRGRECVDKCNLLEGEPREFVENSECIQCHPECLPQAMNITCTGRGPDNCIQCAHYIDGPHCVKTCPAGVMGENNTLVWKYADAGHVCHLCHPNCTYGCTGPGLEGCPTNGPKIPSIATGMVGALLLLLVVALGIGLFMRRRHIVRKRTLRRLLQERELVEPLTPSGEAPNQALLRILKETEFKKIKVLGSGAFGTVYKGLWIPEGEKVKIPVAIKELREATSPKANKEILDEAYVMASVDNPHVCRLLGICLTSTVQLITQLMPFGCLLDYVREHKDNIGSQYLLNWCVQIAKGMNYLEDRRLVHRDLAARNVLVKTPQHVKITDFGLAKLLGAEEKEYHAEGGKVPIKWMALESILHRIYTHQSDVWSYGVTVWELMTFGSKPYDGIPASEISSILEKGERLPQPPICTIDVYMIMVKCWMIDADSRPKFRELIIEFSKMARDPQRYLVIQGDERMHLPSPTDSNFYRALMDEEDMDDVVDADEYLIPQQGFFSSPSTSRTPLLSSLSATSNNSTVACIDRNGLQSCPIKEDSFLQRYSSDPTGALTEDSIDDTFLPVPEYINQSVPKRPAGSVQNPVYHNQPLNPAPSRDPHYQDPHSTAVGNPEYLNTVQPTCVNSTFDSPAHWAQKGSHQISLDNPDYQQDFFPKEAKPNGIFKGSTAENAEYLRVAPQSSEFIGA

For `Cc1nc(NN=Cc2cccs2)nc(-c2ccc(O)cc2O)c1C(=O)Nc1cccc([N+](=O)[O-])c1`, the IC50 (usually the concentration that gives 50% inhibition) at CDK2 (human) [1] was 22.9 µM; on EGFR (human) it was > 100 µM. Also, the GI50 (in general, the concentration at which growth is held to half of that of the control) in the test with CDK2 (human) [2] (a431) worked out at 19.1 µM; with CDK2 (human) [2] (hct 116), 38.2 µM.

With `CC1=C(C(=O)Nc2cccc([N+](=O)[O-])c2)C(c2ccc(O)cc2O)NC(SCc2ccccc2)=N1` (stereo not given), the GI50 in the test with CDK2 (human) [2] (a431) is > 100 µM.

Take `CC1=CN(c2nc(C)c(C(=O)Nc3cccc([N+](=O)[O-])c3)c(-c3ccc(O)cc3O)n2)C(=O)C1=Cc1cccs1`: the IC50 against CDK2 (human) [1] was 3.1 µM; against EGFR (human), > 100 µM. Further, the figures for the GI50 with CDK2 (human) [2] (a431) and with CDK2 (human) [2] (hct 116) were 37.1 µM and 26.5 µM, respectively.

For `CC1=CN(c2nc(C)c(C(=O)Nc3cccc([N+](=O)[O-])c3)c(-c3ccc(O)cc3O)n2)C(=O)C1=Cc1ccco1`, the IC50 at CDK2 (human) [1] is 10.3 µM; against EGFR (human), > 100 µM. The GI50 with CDK2 (human) [2] (a431) is 15.8 µM; with CDK2 (human) [2] (hct 116), > 100 µM.

The molecule `Clc1cccc(Nc2ncnc3cc4c(cc23)OCCO4)c1` gave an IC50 against EGFR (human) of 0.0008 µM.

For the molecule `Cc1nc(NN2C(=O)C(=Cc3ccccc3)SC2=S)nc(-c2ccc(O)cc2O)c1C(=O)Nc1cccc([N+](=O)[O-])c1`, the IC50 is 28.2 µM against CDK2 (human) [1] and > 100 µM against EGFR (human). The results for the GI50 with CDK2 (human) [2] (a431) and in the test with CDK2 (human) [2] (hct 116) were 24.3 µM and 16.6 µM, respectively.

`Cc1nc(NN)nc(-c2ccc(O)cc2O)c1C(=O)Nc1cccc([N+](=O)[O-])c1`: the IC50 was > 100 µM against CDK2 (human) [1] and 47.9 µM against EGFR (human). Moreover, the values for the GI50 with CDK2 (human) [2] (a431) and with CDK2 (human) [2] (hct 116) were 24.3 µM and 47.7 µM, respectively.

`Cc1nc(NN=Cc2ccco2)nc(-c2ccc(O)cc2O)c1C(=O)Nc1cccc([N+](=O)[O-])c1`: the IC50 was 3.8 µM against CDK2 (human) [1] and > 100 µM against EGFR (human). Moreover, the GI50 with CDK2 (human) [2] (a431) came to 2.91 µM; with CDK2 (human) [2] (hct 116), 8.89 µM.

`Cc1nc(NN2C(=O)C(=Cc3ccco3)SC2=S)nc(-c2ccc(O)cc2O)c1C(=O)Nc1cccc([N+](=O)[O-])c1`: the concentration for half-maximal inhibition (IC50) came out at 0.4 µM on CDK2 (human) [1] and 99.3 µM against EGFR (human). Moreover, the concentration for 50% growth inhibition (GI50) is 28.9 µM with CDK2 (human) [2] (a431) and > 100 µM with CDK2 (human) [2] (hct 116).

`Cc1nc(NN2C(=O)C(=Cc3cccs3)SC2=S)nc(-c2ccc(O)cc2O)c1C(=O)Nc1cccc([N+](=O)[O-])c1`: the results for the IC50 against CDK2 (human) [1] and against EGFR (human) were 0.3 µM and 80.6 µM, respectively. Also, the GI50 is 2.78 µM with CDK2 (human) [2] (a431) and 4.5 µM with CDK2 (human) [2] (hct 116).

Take `CC1=C(C(=O)Nc2cccc([N+](=O)[O-])c2)C(c2ccc(O)cc2O)NC(NCc2ccccc2)=N1` (stereo not given): the 50% growth inhibitory concentration (GI50) in the test with CDK2 (human) [2] (hct 116) was > 100 µM.
